Results published in US11684571B2, “Methods of treating eosinophilic esophagitis” (Ellodi Pharmaceuticals, L.P., priority 2016, dated 2023).

Legend:
[1] = oral; cited from earlier work
[2] = in vivo
Protocol: Incidence of treatment-emergent Adverse Events (AEs), AEs leading to withdrawal, and Serious Adverse Events (SAEs) grouped by system organ class (SOC) were calculated as needed. Clinically significant abnormal values for clinical laboratory, AM cortisol (≤138 nmol/L), urinalysis, vital signs, and electrocardiogram (ECG) findings were measured as needed.
A total of 24 subjects were enrolled and randomized to one of six sequences to receive each of the three treatments over the three periods with a 7-day washout between doses.
C. […] These subjects continued fasting for at least 4 hours post-dose. • Subjects on the “Fed” treatment (Treatment B) began a high-fat breakfast 30 minutes after an overnight fast of at least 10 hours. […] Subjects were administered 6.0 mg of ATP-1011 immediately prior to bedtime (4 hours following the standard meal).
Randomization (Day 1): Subjects were randomized to one of six sequences (See Table 15) to receive a single dose of each treatment over three periods, with a 7-day washout between doses.
Treatment Periods: For each period, subjects were in-patients for 5 days (Days 0-4, Days 7-11, Days 14-18) with PK samples collected over 72 hours following each dose. Subjects were checked-in to the CRU the evening prior to each dosing (Day 0, 7, and 14) and received treatment according to the sequence on which they were randomized on Day 1. […] All meals (AM and 4 hours prior to bedtime) were standardized for all subjects and all periods. Subjects completed these meals within 30 minutes. […] Subjects dosed HS followed the same PK schedule with PK samples scheduled relative to the bedtime dose.
Pharmacokinetics: Derived plasma-PK-parameter descriptive statistics were summarized by treatment. […] Additional comparisons were assessed between HS dosing and Fed and Fasted administration.
The following PK parameters were estimated by noncompartmental methods from plasma samples. Below limit of quantitation concentrations were treated as zero for all PK analyses. All deviations from the scheduled sampling time of 2 minutes or more were taken into consideration for evaluation of the PK parameters.
The trapezoidal rule was used to estimate the area under the curve (linear trapezoidal linear interpolation) and the terminal phase were estimated by maximizing the coefficient of determination estimated from the log-linear regression model. However, disposition parameters were not estimated for individual concentration-time profiles where the terminal log-linear phase cannot be reliably characterized.
Food Effect Analysis: The 90% confidence interval for the exponential of the difference in LSmeans between B (fed) and A (fasted) was calculated for the ln-transformed parameters (Test to Reference ratio of geometric LSmeans).
HS vs Fasted Analysis: The 90% confidence interval for the exponential of the difference in LSmeans between C (HS) and A (fasted) was calculated for the ln-transformed parameters (Test to Reference ratio of geometric LSmeans).
HS vs Fed Analysis: The 90% confidence interval for the exponential of the difference in LSmeans between C (HS) and B (fed) was calculated for the ln-transformed parameters (Test to Reference ratio of geometric LSmeans).
Treatments Administered: Study drug was administered by qualified study staff only in accordance with the procedures described in this protocol. […] All subjects were instructed to take the study drug tablet orally without water or other liquids. […]

[3] = Previous PK studies of APT-1011 (food effect, QD vs BID); assay type: in vivo, human; details: single-dose administration

CCC(=O)O[C@]1(C(=O)SCF)[C@H](C)C[C@H]2[C@@H]3C[C@H](F)C4=CC(=O)C=C[C@]4(C)[C@@]3(F)[C@@H](O)C[C@@]21C [FP, Fluticasone propionate]
expected systemic bioavailability [1]: ~1% | AUC0-24, geometric LSmean ([2]; human, 6 mg): 0.367351 ng·h/mL | AUCinf, geometric LSmean ([2]; human, 6 mg): 0.915302 ng·h/mL | AUClast, geometric LSmean ([2]; human, 6 mg): 0.789234 ng·h/mL | Cmax, geometric LSmean ([2]; human, 6 mg): 0.0313 ng/mL | maximum peak exposure, lower than morning-fast [2]: 19% | between-subject variability (CV % Geo mean) of FP AUC(0-24h) [3]: > 55%
